Key:
Rodent Astrocytes = assay: In situ Aβ plaque digestion by apoE4 astrocytes (orthogonal assay); format: cell-based
Procedure: FIG. 7: Schematic representation of assay measuring in situ A$ plaque degradation by apoE3 and apoE4 astrocytes. The assay is designed to measure the ability of astrocytes to digest senile plaques from brain slides of APP mice, which is impaired in apoE4 expressing astrocytes.
FIG. 9: Activity of test compounds (HTS hits) in the plaque digestion assay. Positive control is CS-6253 (25 μg/ml). Test compound concentration is 50 μM.
In situ Aβ plaque degradation by apoE3 and apoE4 astrocytes. This assay is based on measurement of the ability of the astrocytes to clear Aβ plaques following their co-incubation with brain sections of 5×FAD mice, which contain Aβ plaques. Accordingly, 20 μm coronal frozen brain sections were prepared from 9-13-month-old 5×FAD mice using cryostat and placed on glass slides, 3-4 consecutive sections in each slide. The slides were kept at −80° C. until used. At the beginning of the experiment, the slices were incubated for 48 hr at 37° C. with apoE3 and apoE4 astrocytes (10^5 cells in 100 μl medium per slice) in the presence of 50 μM, or otherwise indicated concentrations, of the HTS hits. The slides were gently placed in round petri dishes with thick wet paper, surrounding the slides. PapPen was used to draw liquid repellent borders of the sections to avoid spillage of coating out of the slides. The slides were gently washed of all containing remains by placing them in PBS for 10 minutes, and were then fixated with 4% PFA for 10 minutes, followed by 0.1% Triton solution for 10 minutes. The slides were then incubated with blocking solution (8% Horse Serum, 0.3% Triton, 1 gr/ml BSA, 0.02% Sodium Azide in PBS) for 30 minutes after which they were immunohistochemically stained with primary anti-PAmyloid (6E10) antibody at a dilution of 1:750 in blocking solution for 1 hr at room temperature. This was then followed by washing (×5 with PBST) and incubation with the secondary antibody (Alexa Fluor® 488 donkey α-mouse IgG, A-21202 at dilution of 1:250 at room temperature for 45 minutes. Nuclei were stained with DAPI (Vektashield, Burlingame, Calif.; H-1200). Analysis of the Aβ plaque burden was performed as percentage of the area covered in plaques using the ImageJ software.
(i) Orthogonal assay which monitors the extent to which the hits can reverse the impaired ability of apoE4 astrocytes to digest Aβ senile plaques in vitro. The principle of this orthogonal assay is presented in FIGS. 7 & 8 [17], whereas the activity of the HTS hits in this assay is presented in FIG. 9.

Human Astrocytes = assay: Cholesterol efflux (apoE4 lipidation) assay, BODIPY-cholesterol translocation to apoE4; format: cell-based; conditions: Astrocyte, Human astrocytes, efflux to apoE4
Procedure: Cholesterol efflux assay in HTS. CCF-STTG1 cells were plated in 384-well plates containing 50 μL/well RPMI supplemented with 10% FBS at a density of 5×10^3 cells/well, using a Multidrop 384 Reagent Dispenser (Thermo Scientific), and incubated for 48 hr. Cells were washed twice with 50 μl PBS using an EL406 Microplate Washer Dispenser (BioTek, Winooski, Vt., USA) before being labeled with 50 μl of 10 μM BODIPY-cholesterol+100 μM cyclodextrin (CD) in RPMI 1640 medium containing 0.2% BSA. The labeling medium was added using in a Washer Dispenser II (GNF, San Diego, Calif., USA). Plates were transferred automatically to a Liconic incubator (Mauren Principality of Liechtenstein) and incubated for 24 h. Subsequently, cells were washed twice as described above to remove external cholesterol. Next, 50 μl of the efflux medium was added, which contained recombinant apoE4 at a concentration of 40 μg/ml in transparent RPMI 1640 (no phenol red), again using Washer Dispenser II (GNF, San Diego, Calif., USA). The positive control contained the ABCA1 activator, CS-6253 (120 μg/ml) in addition to the acceptor (apoE4). After 7 hr of efflux, the medium was transferred to new plates, using the Bravo Automated Liquid Handling system (Agilent, Santa Clara, Calif., USA). Fluorescence polarization (FP) and fluorescence intensity (FI) of the medium were measured in a PheraStar FS plate reader (BMG Labtech, Ortenberg, Germany).
The apoE4 lipidation Assay is based on measurements of the ability of astrocytes to translocate fluorescently labelled cholesterol to recombinant non lipidated apoE4 and on the extent to which this effect is enhanced by treatment with each of the screened compounds (FIG. 2, 3). This assay is an adaptation of previous studies of cholesterol translocation from labelled astrocytes to external acceptors such as apoE4 [16], except that in order to differentiate between gene expression related effects and direct biochemical effects of the hits on ABCA1, the incubations of the HTS with the cells was limited to 8 hours. The extent to which the cells secret the labelled cholesterol and transfer it to non-lipidated apoE4 was determined by regular fluorescence as well as by fluorescence polarization microscopy. The latter technique in this context is used due to its sensitivity to particle size which decreases the background signal by differentiating between free and particle bound released cholesterol.
The assay was characterized biochemically and it was shown that translocation of labelled cholesterol to apoE4 is time and concentration dependent (FIG. 4) and was increased by the positive control ABCA1 agonistic 26mer peptide CS-6253 [4] (FIG. 5). The assay was used for high throughput screening (HTS) and selection of positive hits. 50,000 compounds from commercially available libraries were screened utilizing the double criteria of a signal greater than 3 standard deviations from the mean of all of the screened compounds, and being similar or greater than the apoE4 lipidation driven by the ABCA1 agonistic peptide CS-6253. Additional criteria included the tier drug ability value with tier 1 being best and tier 3 being least suitable, as well as a hydrophobicity value of 2<log P<5 value. This yielded 14 hits, designated Compounds #1-#14 (FIG. 6).

apoE4 TR mice = assay: Intraventricular Alzet pump administration to apoE4 TR mice, 11 days; format: in vivo; conditions: intraventricular pump 11 days, vs ACSF
Procedure: These experiments utilized the Alzet osmotic pump to administer labeled compounds #10 and N1 into the ventricles of apoE4 TR mice. The Alzet pumps administered 0.25 μl/hr of the compounds for 11 days. The reagents concentrations were […] for compounds #10 and N1, respectively, reaching estimated concentrations of 200 μM and 250 μM in the CSF. As control groups, apoE3 and apoE4 mice injected with artificial cerebrospinal fluid were used. Four groups, each containing 5 mice were used in the experiments. The total SDS levels in the different groups were measured. […] FIG. 16 depicts the results of the high molecular weight complexes indicating the increase in the apoE4 treated with compounds #10 and N1.
High AT180 corresponds to hyperphosphorylated tau which is pathological.

[1] = test system: apoE4 astrocytic cell line; assay: Cellular viability / cytotoxicity of the hits; format: cell-based, Rodent; conditions: 50 μM
Procedure: FIG. 10: Effects of test compounds (HTS hits) on cellular viability. Experiments were performed on apoE4 astrocytic cell line in the presence of 50 μM of the indicated compounds. Viability was measured microscopically and by measurements of total cellular protein. (ii) Measurements of cytotoxicity of the hits.

ECD1 of ABCA1 = target: T1, ECD1 of ABCA1 (Homo sapiens, UniProt O95477); assay: Microscale thermophoresis (MST) binding, label free protein; conditions: unlabelled ECD1
T1 construct: The proteins used in these experiments were Extra-Cellular Domain 1 (ECD1) of ABCA1 and Extra-Cellular Domain 2 (ECD2); purchased Biomatick
T1 sequence (O95477 43-639 limits assumed): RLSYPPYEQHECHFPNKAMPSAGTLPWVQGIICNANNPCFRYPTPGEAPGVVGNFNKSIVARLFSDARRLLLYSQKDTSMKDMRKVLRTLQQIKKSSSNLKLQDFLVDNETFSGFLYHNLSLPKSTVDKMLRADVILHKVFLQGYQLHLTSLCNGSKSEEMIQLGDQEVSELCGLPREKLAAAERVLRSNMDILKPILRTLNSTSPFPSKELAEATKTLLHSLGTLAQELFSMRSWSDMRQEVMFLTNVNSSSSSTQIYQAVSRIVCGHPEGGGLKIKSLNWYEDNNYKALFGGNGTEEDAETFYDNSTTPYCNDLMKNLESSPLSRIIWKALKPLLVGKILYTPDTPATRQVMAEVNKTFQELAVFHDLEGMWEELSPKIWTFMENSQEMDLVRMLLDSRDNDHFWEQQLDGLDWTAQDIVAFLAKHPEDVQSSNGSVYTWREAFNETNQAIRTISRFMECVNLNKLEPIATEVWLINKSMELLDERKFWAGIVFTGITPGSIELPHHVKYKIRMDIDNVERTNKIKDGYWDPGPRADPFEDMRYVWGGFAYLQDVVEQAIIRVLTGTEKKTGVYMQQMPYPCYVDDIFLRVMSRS
Procedure: Microscale thermophoresis (MST) measurements. MST measurements of the binding of the HTS hits to the extracellular domain (ECD) of ABCA1 were performed by two complimentary methods utilizing either fluorescently labeled proteins or the endogenous fluorescence of unlabeled proteins. This was pursued as follows:
The experiments were performed with the purified extracellual domains 1 (ECD1) and 2 (ECD2) of ABCA1 [18]. Two complementary MST tests were performed, in which either the proteins were labeled with a fluorescence moiety or the endogenous fluorescence of the unlabeled proteins was monitored).

Binding to ECD1 (Label free MST) Amplitude (ECD1 of ABCA1)	Kd (ECD1 of ABCA1)	SMILES	Plaque digestion assay (50 μM) Rodent Astrocytes (Rodent Astrocytes; Table 2)	Plaque digestion assay (50 μM) Rodent Astrocytes (Rodent Astrocytes; Table 4)	EC50 (Human Astrocytes; Table 2)	EC50 (Human Astrocytes; Table 4)	Hippocampal phosphorylated tau (AT180) (apoE4 TR mice)	Levels of high molecular weight lipidated ApoE4 (native gels) (apoE4 TR mice)	Total hippocampal ApoE4 levels (total SDS levels) (apoE4 TR mice)	Viability Rodent Astrocytes ([1]; Table 2)	Viability Rodent Astrocytes ([1]; Table 4)
		Cc1cc(C)c(/C=C2\C(=O)Nc3ccccc32)[nH]1 [Hit #10]	182%	182%	> 44.8 µM	> 44.8 µM	reversed the pathology	increase	reversed the effect	Normal	Normal
24.15 a.u.	59 µM	Clc1cc(N2CCOCC2)c2nonc2c1 [Hit #99]				> 44.8 µM					
		O=C(O)CSc1cc(Cl)c2nonc2c1[N+](=O)[O-] [Hit N1]					reversed the pathology	increase	reversed the effect		
